In US12497386B2, “Estrogen receptor-modulating compounds” (RADIUS PHARMACEUTICALS, INC., priority 2018, dated 2025):

Columns and labels:
MCF-7 cells = experiment: MCF-7 Proliferation Inhibition Assay; type: cell-based, human; conditions: Homo sapiens, MCF7, 168 h, 10 pM dose of E2, 7 days incubation, CellTiterGlo viability
Description: Proliferation Assay in MCF-7 and T47D Cells
MCF-7 and T47D cells were stripped for 3 days in phenol red-free RPMI1640 media containing 10% charcoal-stripped fetal bovine serum (CS-FBS) and 1% Penicillin/streptomycin (P/S). Cells (volume of 90 μl/well) were seeded in 96 well plates at a density of 2500 cells/well for MCF-7 cells and 1500 cells/well for T47D cells. On the following day, plates were treated with the test compounds (10× concentration in media, volume of 10 μl/well added) both in the absence and in the presence of two doses of E2 (10 pM and 1 nM). The cells were incubated with test compounds for 7 days. The viability of the cells was assessed using CellTiterGlo (Promega, Cat #G7573) according to the manufacturer's instructions. Growth inhibition curves and IC50 values were calculated using the GraphPadPrism 6.0 software. Data values shown in Table 1 were obtained using the 10 pM dose of E2.

[1] = tested on: E2-induced increase in uterine weight in immature rats; experiment: Immature Rat Uterine Assay; type: in vivo, Sprague-Dawley rat; conditions: oral dose of 3 mg/kg in combination with E2 (0.01 mg/kg), once daily for three consecutive days
Description: Immature Rat Uterine Assay
Sprague-Dawley rat pups were weaned at 19 days of age, randomized into groups (n=6), and administered vehicle (aqueous 20% HPBCD, 10% PEG400 in H2O), E2 (0.01 mg/kg), test compounds (0.1 mg/kg-3 mg/kg) in combination with E2 (0.01 mg/kg), either by subcutaneous injection or by oral gavage, once daily for three consecutive days. Twenty-four hours after the final dose, all animals were killed by carbon dioxide inhalation. Body weights and wet uterine weights were recorded for each animal. GraphPadPrism 6.0 software was used to analyze data.

Row | SMILES | IC50 (MCF-7 cells) [nM] | wet uterine weight [1]
1 | CCNCCc1ccc(Cn2c(-c3ccc(OC)cc3)c(F)c3cc(O)ccc32)cc1 [Compound D-16, 1-(4-(2-(Ethylamino)ethyl)benzyl)-3-fluoro-2-(4-methoxyphenyl)-1H-indol-5-ol] | < 1 | –
2 | CCNCCc1ccc(CC2=C(c3ccccc3C)CCOc3cc(O)ccc32)cc1 [Bx-07, 5-(4-(2-(Ethylamino)ethyl)benzyl)-4-(o-tolyl)-2,3-dihydrobenzo[b]oxepin-8-ol] | < 1 | –
3 | CCCNCCc1ccc(Cn2c(-c3ccc(OC)cc3C)c(F)c3cc(O)ccc32)cc1 [Compound D-96, 3-Fluoro-2-(4-methoxy-2-methylphenyl)-1-(4-(2-(propylamino)ethyl)benzyl)-1H-indol-5-ol] | < 1 | –
4 | Cc1ccccc1-c1c(F)c2c3cn[nH]c3ccc2n1Cc1ccc(CCNCCCF)cc1 [Compound D-102, 3-Fluoro-N-(4-((8-fluoro-7-(o-tolyl)pyrrolo[3,2-e]indazol-6(3H)-yl)methyl)phenethyl)propan-1-amine] | < 1 | suppressed wet uterine weight to baseline
5 | CCNCCc1ccc(Cn2c(-c3ccccc3C)c(F)c3c4cn[nH]c4ccc32)cc1 [Compound D-85, N-Ethyl-2-(4-((8-fluoro-7-(o-tolyl)pyrrolo[3,2-e]indazol-6(3H)-yl)methyl)phenyl)ethan-1-amine] | < 1 | –
6 | CCNCCc1ccc(Cn2c(-c3ccc(OC)cc3)c(Cl)c3cc(O)ccc32)cc1 [Compound D-13, 3-Chloro-1-(4-(2-(ethylamino)ethyl)benzyl)-2-(4-methoxyphenyl)-1H-indol-5-ol] | 1 to 10 | –
7 | CCNCCc1ccc(Cn2c(-c3ccc(OC)cc3)c(C)c3cc(O)ccc32)cc1 [Compound D-01, 1-(4-(2-(Ethylamino)ethyl)benzyl)-2-(4-methoxyphenyl)-3-methyl-1H-indol-5-ol] | 1 to 10 | –

Further lines, with some results ahead:

Row | IC50 (MCF-7 cells) [nM] | SMILES | wet uterine weight [1]
8 | < 1 | Oc1ccc2c(c1)c(F)c(-c1ccccc1C(F)(F)F)n2Cc1ccc(CCNC2CC2)cc1 [Compound D-33, 1-(4-(2-(Cyclopropylamino)ethyl)benzyl)-3-fluoro-2-(2-(trifluoromethyl)phenyl)-1H-indol-5-ol] | –
9 | < 1 | COc1ccc(-c2c(F)c3cc(O)ccc3n2Cc2ccc(CCNC3CC3)cc2)cc1 [Compound D-15, 1-(4-(2-(Cyclopropylamino)ethyl)benzyl)-3-fluoro-2-(4-methoxyphenyl)-1H-indol-5-ol] | –
10 | < 1 | Cc1ccccc1-c1c(F)c2cc(O)ccc2n1Cc1ccc(CCNCCF)cc1 [Compound D-70, 3-Fluoro-1-(4-(2-((2-fluoroethyl)amino)ethyl)benzyl)-2-(o-tolyl)-1H-indol-5-ol] | –
11 | < 1 | Oc1ccc2c(c1)c(F)c(-c1ccccc1Cl)n2Cc1ccc(CCNC2CC2)cc1 [Compound D-37, 2-(2-Chlorophenyl)-1-(4-(2-(cyclopropylamino)ethyl)benzyl)-3-fluoro-1H-indol-5-ol] | –
12 | < 1 | Cc1ccccc1-c1c(F)c2cc(O)ccc2n1Cc1ccc(CCNCC2CC2)cc1 [Compound D-39, 1-(4-(2-((Cyclopropylmethyl)amino)ethyl)benzyl)-3-fluoro-2-(o-tolyl)-1H-indol-5-ol] | –
